One test relates to KDM2A (KDM2A1–557). Description: MALDI-TOF MS demethylation activity assay, KDM2A. It is filed as biochemical, human. The arrangement: key: 🟢: Indicates that clear demethylation activity was observed; 🟡: Indicates that low level demethylation activity was observed (<10% conversion after 1 h); 🔴: Indicates no activity under the stated conditions (1 μM KDM, 10 μM peptide); 🟡*: *Indicates demethylation activity was only observed with 5 μM KDM. The note with it: peptide as substrate, 1 μM KDM, 10 μM peptide, 50 mM HEPES pH 7.5, Fe(II) 10 μM, ascorbate 100 μM, 2OG 200 μM, 1 h at 37 °C. On the procedure:
(§1) Recombinant proteins (1 μM) were incubated with peptides (10 μM, sequences are given in Table S1) in 50 mM HEPES, pH 7.5 with addition of Fe(II) ammonium sulfate (10 μM), sodium ascorbate (100 μM) and 2‐oxoglutaric acid (200 μM). Reactions with KDM3A and KDM7A also contained 1 mM tris(2‐carboxyethyl)phosphine hydrochloride. No enzyme reactions were included as negative controls. Reactions were incubated for 1 h at 37 °C before being quenched with 1 : 1 (v/v) methanol. Analysis was carried out by MALDI‐TOF MS (Bruker, Billerica, MA, USA), with demethylation observed as mass shifts of 14 Da.
(§2) The propensity of human JmjC KDMs to catalyse demethylation at H1.4K26 was investigated using recombinant forms of the catalytic domains of representatives of each human JmjC KDM subfamily (KDM2‐7) and fragment peptides (Table S1) 37. Three peptides with identical sequences, corresponding to residues 18–32 of histone H1.4 (H2N‐[…]‐CONH2), but containing either a N ^ε‐tri‐, di‐ or monomethyllysine at K26 were synthesised (Fig. 1B and Table S1). Activity assays monitoring JmjC KDM‐catalysed demethylation of the peptides were then carried out; samples were prepared containing each peptide, 2‐oxoglutarate (2OG), ferrous iron, ascorbate and individual representatives from each JmjC KDM subfamily (KDM2A 38, KDM3A 21, KDM4E 22, KDM5C 39, 40, KDM6B 41, KDM7A 42).

A further test concerns KDM3A (KDM3A515–1317). The test is described as follows: MALDI-TOF MS demethylation activity assay, KDM3A. The note with it: peptide as substrate, 1 μM KDM, 10 μM peptide, 50 mM HEPES pH 7.5, Fe(II) 10 μM, ascorbate 100 μM, 2OG 200 μM, 1 mM TCEP, 1 h at 37 °C. It is filed as biochemical, human. The arrangement: key: 🟢: Indicates that clear demethylation activity was observed; 🟡: Indicates that low level demethylation activity was observed (<10% conversion after 1 h); 🔴: Indicates no activity under the stated conditions (1 μM KDM, 10 μM peptide); 🟡*: *Indicates demethylation activity was only observed with 5 μM KDM. On the procedure: as §1, §2

For the next test, the system named is KDM4A (KDM4A1–359). Description: MALDI-TOF MS demethylation activity assay, KDM4A. It is filed as biochemical, human. The arrangement: key: 🟢: Indicates that clear demethylation activity was observed; 🟡: Indicates that low level demethylation activity was observed (<10% conversion after 1 h); 🔴: Indicates no activity under the stated conditions (1 μM KDM, 10 μM peptide); 🟡*: *Indicates demethylation activity was only observed with 5 μM KDM. The note with it: peptide as substrate, 1 μM KDM, 10 μM peptide, 50 mM HEPES pH 7.5, Fe(II) 10 μM, ascorbate 100 μM, 2OG 200 μM, 1 h at 37 °C. On the procedure:
as §1
(§3) Given the activity observed with KDM4E and KDM7A, we decided to investigate the intra‐subfamily conservation of this demethylation activity. The demethylation activity of the other subfamily members (KDM4A‐D and KDM7B) was therefore screened. […] Note that as with H3K9, demethylation of the monomethylated H1.4K26 peptide was only observed with KDM4E, under the stated conditions 24.

The next test has as its system KDM4C (KDM4C1–359). Description: MALDI-TOF MS demethylation activity assay, KDM4C. It is filed as biochemical, human. The arrangement: key: 🟢: Indicates that clear demethylation activity was observed; 🟡: Indicates that low level demethylation activity was observed (<10% conversion after 1 h); 🔴: Indicates no activity under the stated conditions (1 μM KDM, 10 μM peptide); 🟡*: *Indicates demethylation activity was only observed with 5 μM KDM. The following applies: peptide as substrate, 1 μM KDM, 10 μM peptide, 50 mM HEPES pH 7.5, Fe(II) 10 μM, ascorbate 100 μM, 2OG 200 μM, 1 h at 37 °C. On the procedure: as §1, §3

The test system of the next test is KDM4E (KDM4E1–337). The test is described as follows: MALDI-TOF MS demethylation activity assay, KDM4E. It is filed as biochemical, human. The arrangement: key: 🟢: Indicates that clear demethylation activity was observed; 🟡: Indicates that low level demethylation activity was observed (<10% conversion after 1 h); 🔴: Indicates no activity under the stated conditions (1 μM KDM, 10 μM peptide); 🟡*: *Indicates demethylation activity was only observed with 5 μM KDM. The following applies: peptide as substrate, 1 μM KDM, 10 μM peptide, 50 mM HEPES pH 7.5, Fe(II) 10 μM, ascorbate 100 μM, 2OG 200 μM, 1 h at 37 °C. On the procedure:
as §1, §2

The test system of a further test is KDM5C (KDM5C1–765). Description: MALDI-TOF MS demethylation activity assay, KDM5C. The note with it: peptide as substrate, 1 μM KDM, 10 μM peptide, 50 mM HEPES pH 7.5, Fe(II) 10 μM, ascorbate 100 μM, 2OG 200 μM, 1 h at 37 °C. Set-up: key: 🟢: Indicates that clear demethylation activity was observed; 🟡: Indicates that low level demethylation activity was observed (<10% conversion after 1 h); 🔴: Indicates no activity under the stated conditions (1 μM KDM, 10 μM peptide); 🟡*: *Indicates demethylation activity was only observed with 5 μM KDM. It is filed as biochemical, human. On the procedure: as §1, §2

For the next test, the target named is T1, recombinant human KDM4A (Homo sapiens, UniProt O75164).
T1 construct: recombinantly expressed as reported either in Escherichia coli (KDM2A1–557 25, KDM4A1–359 26); His6 (N); made in house; host or cells: Escherichia coli
T1 sequence (O75164 1-359): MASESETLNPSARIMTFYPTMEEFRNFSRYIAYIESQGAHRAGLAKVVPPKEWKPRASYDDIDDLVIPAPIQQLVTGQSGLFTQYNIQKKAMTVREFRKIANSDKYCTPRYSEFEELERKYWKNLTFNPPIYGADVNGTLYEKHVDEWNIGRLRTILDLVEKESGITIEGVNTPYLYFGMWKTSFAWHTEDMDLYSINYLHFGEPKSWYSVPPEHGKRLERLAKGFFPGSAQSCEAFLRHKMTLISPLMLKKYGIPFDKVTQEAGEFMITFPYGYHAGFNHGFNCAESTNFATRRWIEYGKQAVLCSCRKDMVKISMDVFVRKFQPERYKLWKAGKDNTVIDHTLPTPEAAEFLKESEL
Description: Formaldehyde dehydrogenase (FDH)-coupled demethylation assay, Michaelis–Menten kinetics. It is filed as biochemical. The following applies: peptide as substrate. On the procedure:
Kinetic parameters for KDM4 enzymes were determined by use of an FDH (formaldehyde dehydrogenase)/NAD^+‐coupled) assay for quantification of the formaldehyde reaction byproduct, as previously described 27. […] Specific activities were measured using a 100‐μM peptide. For Michaelis–Menten experiments, peptide concentrations were varied. Reactions were monitored using a PHERAstar FS plate reader (BMG Labtech, Ortenberg, Germany) with 355 nm excitation and 460 nm emission. Kinetic parameters were calculated from the reaction rate during the initial linear phase of formaldehyde production, which were used to calculate specific activities or fitted to Michaelis–Menten equations using […] PRISM (GraphPad Software, La Jolla, CA, USA).
Michaelis–Menten kinetics were then conducted with KDM4A. Samples containing KDM4A, 2OG, ascorbate, H1.4K26me3 peptide, NAD^+ and FDH were analysed over time and kinetic parameters were determined by recording the initial reaction rates of NADH production (corresponding to enzymatic production of formaldehyde) at varying peptide concentration.

Where [1] appears, read: concentration varied, FDH/NAD+-coupled fluorescence assay, 50 mM HEPES pH 7.5, 0.01% Tween-20, 2OG 200 μM, KDM4A, mean and standard deviation of three independent replicates, SD.

Square brackets hold non-standard residues; d marks the D form. Ends that are not written are not given here. Lys(Me3) = C[N+](C)(C)CCCC[C@H](N)C(=O)O

As to “TPVKKKAR[Lys(Me3)]SAGAAK [H1.4(18–32)K26me3, peptide of residues 18–32 of histone H1.4 with N ε-trimethyllysine at K26]”, the “demethylation activity on methylated H1.4 peptide” value in the test on KDM2A (KDM2A1–557) is “🔴”; with KDM3A (KDM3A515–1317), “🔴”; in the test on KDM4A (KDM4A1–359), “🟢”; in the test with KDM4C (KDM4C1–359) it was “🟢”; in the test with KDM4E (KDM4E1–337), “🟢”; with KDM5C (KDM5C1–765) it was “🔴”. Further, the “K M” value at recombinant human KDM4A (setting [1]) was 32.3 ± 6.4 µM. The k cat on recombinant human KDM4A (setting [1]) was found to be 0.32 ± 0.049 s⁻¹. At recombinant human KDM4A (FDH-coupled assay, ratio of k cat (s^−1) and K M (μM)), the k cat/K M was 0.0098 µM⁻¹ s⁻¹.

Values taken from article PMC6220849, “Mechanistic and structural studies of KDM‐catalysed demethylation of histone 1 isotype 4 at lysine 26” (Febs Letters, 2018).
